Entries after “also recorded” stand apart in the source; their conditions may differ.
How the values were obtained:
[1] = system: wound activated skin mast cells; assay: Wound pharmacodynamic model of mast cell expansion in monkey; settings: for Fold UT-7 IC50 (Ctrough) / Inhibition of activated skin mast cells: day 14
[2] = system: human CD34+, CD 117+ (c-Kit) bone marrow cells; assay: CD34+ bone marrow cell CFU assay (SCF/GM-CSF colony formation), human; assay type: cell-based
Protocol: (§1) The SR-1 monoclonal antibody was selected based on its equivalent functional potency at human and monkey c-Kit in the CD34+ bone marrow cell CFU assay (inhibition at 1.0 ug/mL), and its monkey PK.

[3] = Exposure after repeated once-weekly dosing; assay type: in vivo, African green monkeys; settings: preliminary exposure data
From the text: Based on preliminary exposure data of SR-1 and humanized antibodies in African green monkeys after repeated once-weekly dosing, humanized antibodies achieved higher exposures compared to SR-1. […] 1992; 35(3): 165-74.

c-Kit dimer = assay: Biacore binding to c-Kit dimer versus soluble monomer; parameters: species or system human
c-Kit dimer, sequence (P10721 26-509 limits assumed): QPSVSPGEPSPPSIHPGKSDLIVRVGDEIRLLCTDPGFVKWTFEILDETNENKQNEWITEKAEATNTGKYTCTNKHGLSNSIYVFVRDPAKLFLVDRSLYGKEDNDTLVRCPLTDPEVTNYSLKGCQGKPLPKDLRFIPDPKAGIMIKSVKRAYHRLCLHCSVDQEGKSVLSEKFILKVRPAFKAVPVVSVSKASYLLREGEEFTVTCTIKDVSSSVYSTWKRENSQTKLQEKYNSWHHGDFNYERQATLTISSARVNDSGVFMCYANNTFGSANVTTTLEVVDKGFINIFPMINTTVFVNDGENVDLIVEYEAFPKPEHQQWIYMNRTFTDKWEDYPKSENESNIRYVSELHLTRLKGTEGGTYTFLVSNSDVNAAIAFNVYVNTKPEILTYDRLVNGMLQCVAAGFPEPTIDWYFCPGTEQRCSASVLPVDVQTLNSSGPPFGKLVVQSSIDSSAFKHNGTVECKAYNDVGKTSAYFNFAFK
From the text: Activation of c-Kit upon binding by stem cell factor (SCF) leads to dimerization/oligomerization, autophosphorylation and receptor internalization, most likely through a clathrin-dependent pathway. The SR-1 monoclonal antibody binds the c-Kit dimer with 1000-fold higher affinity compared to the soluble c-Kit extra-cellular domain monomer as determined by Biacore.
Carbohydrates present on a glycoprotein can influence biological and functional properties. […] This is an important characteristic not predicted to be translated with certainty with the humanization and as the soluble c-Kit monomer is less likely to act as a sink for the antibody in vivo.

[4] = Effector function (CDC, ADCC); assay type: cell-based
From the text: (§2) In contrast, binding of SR-1 IgG1 and IgG4β isotypes was detected presumably to the high affinity FcγRI. […] Aglycosylated chimeric mouse/human IgG1 antibodies have been reported to […] (Hybridoma. 1991 April; 10(2):211-7) and so these desired activities of hSR-1 aIgG1 are not expected.

[5] = system: Cultured human mast cells derived from bone marrow CD34+ cells; assay: Cultured human mast cell assays (survival, c-Kit phosphorylation, aggregation); assay type: cell-based
c-Kit in MO7e cells = assay: SCF-mediated c-Kit phosphorylation and internalization in MO7e cells; assay type: cell-based
[6] = Preliminary PK study after single IV or SC administration
Protocol: A preliminary PK study was conducted to compare hSR-1 IgG2 and hSR-1 aIgG1 PK in male cynomolgus monkeys after a single IV or SC administration at 3 mg/kg.

c-Kit = c-Kit (Homo sapiens, UniProt P10721); assay: Cell based assays of c-Kit signaling (functional potency, agonism, internalization); parameters: endogenous in cells; host or cells: MO7e cells; cultured human mast cells derived from bone marrow CD34+ cells; primary human CD34+ CD117+ bone marrow cells; UT-7 cells; settings: all cell based assays tested
c-Kit, sequence (P10721 26-976): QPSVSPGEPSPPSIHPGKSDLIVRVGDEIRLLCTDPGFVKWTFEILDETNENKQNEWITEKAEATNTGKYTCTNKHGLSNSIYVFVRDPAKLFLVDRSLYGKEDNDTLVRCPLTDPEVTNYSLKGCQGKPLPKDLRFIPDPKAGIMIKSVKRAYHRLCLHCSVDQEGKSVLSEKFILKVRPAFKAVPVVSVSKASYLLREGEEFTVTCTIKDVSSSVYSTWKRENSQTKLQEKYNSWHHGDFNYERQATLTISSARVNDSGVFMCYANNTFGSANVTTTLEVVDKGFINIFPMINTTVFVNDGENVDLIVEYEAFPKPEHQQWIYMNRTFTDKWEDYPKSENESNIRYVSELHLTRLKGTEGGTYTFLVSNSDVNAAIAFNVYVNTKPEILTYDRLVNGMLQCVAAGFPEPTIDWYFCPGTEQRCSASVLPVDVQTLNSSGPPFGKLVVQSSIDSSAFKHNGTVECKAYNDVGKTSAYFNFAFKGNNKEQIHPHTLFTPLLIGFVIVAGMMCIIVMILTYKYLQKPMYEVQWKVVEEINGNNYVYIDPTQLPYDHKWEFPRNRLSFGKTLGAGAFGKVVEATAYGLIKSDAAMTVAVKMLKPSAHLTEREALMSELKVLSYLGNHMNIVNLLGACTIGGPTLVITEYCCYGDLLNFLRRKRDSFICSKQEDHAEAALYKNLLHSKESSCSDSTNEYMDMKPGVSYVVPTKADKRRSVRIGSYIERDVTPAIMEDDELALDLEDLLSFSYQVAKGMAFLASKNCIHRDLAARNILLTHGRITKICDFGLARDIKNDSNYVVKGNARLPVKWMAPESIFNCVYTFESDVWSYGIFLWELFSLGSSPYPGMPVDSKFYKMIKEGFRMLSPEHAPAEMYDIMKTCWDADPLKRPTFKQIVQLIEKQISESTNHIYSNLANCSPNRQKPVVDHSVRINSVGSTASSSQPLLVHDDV
From the text: These properties are potentially undesirable since the aim of a therapeutic strategy is to apoptotically deplete mast cells and precurors by blocking the survival SCF signal and to avoid mast cell activation that could lead to anaphylactoid reactions in vivo. When the mouse SR-1 CDR regions were inserted in the human IgG1 framework, affinity and functional potency were also maintained, but this background is less desirable due to the complement activation and cell mediated cytotoxicity often found with this isotype of antibody.
The aglycosylated IgG1 isotype was chosen to avoid effector function and cell killing through bystander effects. […] It also depletes mast cells in vivo as expected.

[7] = system: U-937 cells expressing Fcγ receptor I=CD64, Fcγ receptor II=CD32 and Fcγ receptor III=CD16; assay: Non-specific FcR binding to U-937 cells; assay type: cell-based
From the text: as §2

[8] = In vivo tolerability in non-human primates; settings: up to 30 mg/kg once weekly for 4 weeks or up to 150 mg/kg subcutaneously once weekly for 2 weeks
[9] = Human dose projection (body surface area-based dose conversion); settings: equivalent dosing regimen, preliminary estimation
Protocol: The minimal effective dose in the wound PD model of mast cell expansion is <0.3 mg/Kg administered once weekly for 2 weeks in monkeys. Based on a body surface area-based dose conversion, the minimal effective dose in human is projected to be <0.1 mg/Kg with an equivalent dosing regiment. However, this is a preliminary estimation as the PK and the pharmacodynamic relationship between the degree and duration of c-kit inhibition in human by hSR-1 aIgG1 and clinical endpoints are unknown at this time. A more accurate projection will be made when more pharmacokinetic and pharmacodynamic data are available.

[10] = system: basal lung and colon mast cells; assay: Depletion of basal lung and colon mast cells in monkey; assay type: in vivo; settings: day 14
Protocol: as §1
[…] […] For practical reasons, basal pulmonary mast cells were evaluated on day 28 at the time of necropsy and the termination of the study.

[11] = IV, 3 mg/kg, male cynomolgus monkeys
[12] = SC, 3 mg/kg, male cynomolgus monkeys

hSR-1 aIgG1: Humanized anti-c-Kit aglycosylated IgG1 antibody; kappa light chain SEQ ID NO: 2, heavy chain SEQ ID NO: 4
Fold UT-7 IC50 (Ctrough) ([1]; 0.3 mg/kg once weekly): >200 fold | Fold UT-7 IC50 (Ctrough) ([1]; 1.0 mg/kg once weekly): >2000 fold | Inhibition of activated skin mast cells ([1]; 1.0 mg/kg once weekly): >95% | Fold UT-7 IC50 (Ctrough) ([1]; 3.0 mg/kg once weekly): >7000 fold | Inhibition of activated skin mast cells ([1]; 3.0 mg/kg once weekly): >95% | minimal effective dose in the wound PD model ([1]; once weekly for 2 weeks in monkeys): < 0.3 mg/kg | survival relative to baseline [2]: inhibit survival below baseline | neutralization of the synergistic effect of SCF on GM-CSF derived colony formation ([2]; 1.0 ug/mL): neutralization | intrinsic agonistic survival activity ([2]; up to 10 ug/mL): no intrinsic agonistic survival activity | exposure compared within group [3]: equal best in group PK | binding to receptor dimer / membrane c-Kit versus monomer / soluble c-Kit (c-Kit dimer): higher affinity to the membrane c-Kit compared to soluble c-kit; also recorded: high affinity to the receptor dimer versus monomer | complement dependent cytotoxic cell death [4]: no complement dependent cytotoxic cell death | ADCC activity ([4]; predicted from lack of FcR binding): no ADCC activity | homotypic mast cell aggregation / clustering [5]: no ability to mediate homotypic mast cell aggregation | inhibition of SCF-dependent mast cell survival [5]: inhibited | c-Kit receptor phosphorylation mediated by the antibody ([5]; FIG. 3): did not mediate | survival signal conferred to mast cells (agonist activity) ([5]; antibody alone): conferred no survival signal | inhibition of SCF-mediated c-Kit phosphorylation and internalization (c-Kit in MO7e cells): potently inhibited | agonism in c-Kit receptor proximal phosphorylation read-out (c-Kit in MO7e cells; antibody alone): no evidence of agonism | AUC0-tlast [6, 11]: 9710 µg·h/mL | C0 [6, 11]: 103 µg/mL | CL ([6]; IV, 3 mg/kg, calculated based on AUC0-tlast): ≦0.309 mL/hr/kg | AUC0-tlast [6, 12]: 7970 µg·h/mL | Cmax [6, 12]: 36.4 µg/mL | Tmax [6, 12]: 72 h | PK time profile ([6]; single IV or SC 3 mg/kg): non-linear PK | antagonism of SCF (c-Kit): highly potent neutral antagonist | agonism of c-Kit (c-Kit; proximal and distal read-outs): no agonism | non-specific FcR binding [7]: no detectable | abnormalities on in vivo dosing [8]: No unexpected abnormalities | projected minimal effective dose in human [9]: < 0.1 mg/kg | Depletion of basal colon mast cells ([10]; 0.3 mg/kg once weekly): no efficacy; also recorded: No effect | Depletion of basal colon mast cells ([10]; 1.0 mg/kg once weekly): >65% | Depletion of basal colon mast cells ([10]; 3.0 mg/kg once weekly): >95%

Source: patent publication US8791249B2, “Nucleic acid encoding humanized c-kit antibody” (Amgen Inc., priority 2006, dated 2014)
